Converted amounts (≈) assume the structure as drawn.
Experiments:
Type in all cases: functional
Staphylococcus aureus [1] = experiment: Antibacterial activity against methicillin-resistant Staphylococcus aureus assessed as bacterial growth inhibition incubated for 24 hrs by CLSI based two serial dilution assay
Enterococcus faecalis = experiment: Antibacterial activity against Enterococcus faecalis assessed as bacterial growth inhibition incubated for 24 hrs by CLSI based two serial dilution assay
Staphylococcus aureus [2] = experiment: Antibacterial activity against Staphylococcus aureus assessed as bacterial growth inhibition incubated for 24 hrs by CLSI based two serial dilution assay
Staphylococcus aureus [3] = experiment: Antibacterial activity against Staphylococcus aureus 25923 assessed as bacterial growth inhibition incubated for 24 hrs by CLSI based two serial dilution assay
Staphylococcus aureus [4] = experiment: Antibacterial activity against Staphylococcus aureus 29213 assessed as bacterial growth inhibition incubated for 24 hrs by CLSI based two serial dilution assay
Klebsiella pneumoniae = experiment: Antibacterial activity against Klebsiella pneumoniae assessed as bacterial growth inhibition incubated for 24 hrs by CLSI based two serial dilution assay
Escherichia coli [5] = experiment: Antibacterial activity against Escherichia coli assessed as bacterial growth inhibition incubated for 24 hrs by CLSI based two serial dilution assay
Escherichia coli [6] = experiment: Antibacterial activity against Escherichia coli 25922 assessed as bacterial growth inhibition incubated for 24 hrs by CLSI based two serial dilution assay
Pseudomonas aeruginosa [7] = experiment: Antibacterial activity against Pseudomonas aeruginosa assessed as bacterial growth inhibition incubated for 24 hrs by CLSI based two serial dilution assay
Pseudomonas aeruginosa [8] = experiment: Antibacterial activity against Pseudomonas aeruginosa ATCC 27853 assessed as bacterial growth inhibition incubated for 24 hrs by CLSI based two serial dilution assay
Acinetobacter baumannii = experiment: Antibacterial activity against Acinetobacter baumannii assessed as bacterial growth inhibition incubated for 24 hrs by CLSI based two serial dilution assay
Candida albicans [9] = experiment: Antifungal activity against Candida albicans assessed as inhibition of fungal growth incubated for 24 hrs by CLSI based two serial dilution assay
Candida albicans [10] = experiment: Antifungal activity against Candida albicans ATCC 90023 assessed as inhibition of fungal growth incubated for 24 hrs by CLSI based two serial dilution assay
Candida tropicalis = experiment: Antifungal activity against Candida tropicalis assessed as inhibition of fungal growth incubated for 24 hrs by CLSI based two serial dilution assay
Candida parapsilosis = experiment: Antifungal activity against Candida parapsilosis ATCC 22019 assessed as inhibition of fungal growth incubated for 24 hrs by CLSI based two serial dilution assay; details: Lodderomyces parapsilosis
Aspergillus fumigatus = experiment: Antifungal activity against Aspergillus fumigatus assessed as inhibition of fungal growth incubated for 24 hrs by CLSI based two serial dilution assay

| Compound | MIC (Staphylococcus aureus [1]) | MIC (Enterococcus faecalis) | MIC (Staphylococcus aureus [2]) | MIC (Staphylococcus aureus [3]) | MIC (Staphylococcus aureus [4]) | MIC (Klebsiella pneumoniae) | MIC (Escherichia coli [5]) | MIC (Escherichia coli [6]) | MIC (Pseudomonas aeruginosa [7]) | MIC (Pseudomonas aeruginosa [8]) | MIC (Acinetobacter baumannii) | MIC (Candida albicans [9]) | MIC (Candida albicans [10]) | MIC (Candida tropicalis) | MIC (Candida parapsilosis) | MIC (Aspergillus fumigatus) |
| --- | --- | --- | --- | --- | --- | --- | --- | --- | --- | --- | --- | --- | --- | --- | --- | --- |
| CCCCN1C(=O)/C(=N\Nc2nccs2)c2cc(F)ccc21 | 2 µM (≈ 0.637 µg/mL) | 4 µM (≈ 1.27 µg/mL) | 4 µM (≈ 1.27 µg/mL) | 4 µM (≈ 1.27 µg/mL) | 1 µM (≈ 0.318 µg/mL) | 1 µM (≈ 0.318 µg/mL) | 1 µM (≈ 0.318 µg/mL) | 1 µM (≈ 0.318 µg/mL) | 1 µM (≈ 0.318 µg/mL) | 4 µM (≈ 1.27 µg/mL) | 1 µM (≈ 0.318 µg/mL) | 1 µM (≈ 0.318 µg/mL) | 1 µM (≈ 0.318 µg/mL) | 4 µM (≈ 1.27 µg/mL) | 1 µM (≈ 0.318 µg/mL) | 4 µM (≈ 1.27 µg/mL) |
| CCCCN1C(=O)/C(=N\Nc2nccs2)c2ccc(Cl)cc21 | 0.5 µM (≈ 0.167 µg/mL) | 2 µM (≈ 0.67 µg/mL) | 1 µM (≈ 0.335 µg/mL) | 0.5 µM (≈ 0.167 µg/mL) | 4 µM (≈ 1.34 µg/mL) | 0.5 µM (≈ 0.167 µg/mL) | 1 µM (≈ 0.335 µg/mL) | 4 µM (≈ 1.34 µg/mL) | 0.5 µM (≈ 0.167 µg/mL) | 4 µM (≈ 1.34 µg/mL) | 0.5 µM (≈ 0.167 µg/mL) | 0.5 µM (≈ 0.167 µg/mL) | 2 µM (≈ 0.67 µg/mL) | 1 µM (≈ 0.335 µg/mL) | 0.5 µM (≈ 0.167 µg/mL) | 1 µM (≈ 0.335 µg/mL) |
| CCCN1C(=O)/C(=N\Nc2nccs2)c2ccccc21 | 32 µM (≈ 9.16 µg/mL) | 16 µM (≈ 4.58 µg/mL) | 16 µM (≈ 4.58 µg/mL) | 4 µM (≈ 1.15 µg/mL) | 4 µM (≈ 1.15 µg/mL) | 32 µM (≈ 9.16 µg/mL) | 128 µM (≈ 36.7 µg/mL) | 4 µM (≈ 1.15 µg/mL) | 2 µM (≈ 0.573 µg/mL) | 32 µM (≈ 9.16 µg/mL) | 32 µM (≈ 9.16 µg/mL) | 64 µM (≈ 18.3 µg/mL) | 128 µM (≈ 36.7 µg/mL) | 32 µM (≈ 9.16 µg/mL) | 32 µM (≈ 9.16 µg/mL) | 16 µM (≈ 4.58 µg/mL) |
| CCCCCCCCCCN1C(=O)/C(=N\Nc2nccs2)c2ccccc21 | 512 µM (≈ 197 µg/mL) | 4 µM (≈ 1.54 µg/mL) | 512 µM (≈ 197 µg/mL) | 512 µM (≈ 197 µg/mL) | 512 µM (≈ 197 µg/mL) | 256 µM (≈ 98.4 µg/mL) | 512 µM (≈ 197 µg/mL) | 64 µM (≈ 24.6 µg/mL) | 64 µM (≈ 24.6 µg/mL) | 512 µM (≈ 197 µg/mL) | 512 µM (≈ 197 µg/mL) | 512 µM (≈ 197 µg/mL) | 256 µM (≈ 98.4 µg/mL) | 64 µM (≈ 24.6 µg/mL) | 256 µM (≈ 98.4 µg/mL) | 512 µM (≈ 197 µg/mL) |
| CCCCCCCCN1C(=O)/C(=N\Nc2nccs2)c2ccccc21 | 512 µM (≈ 183 µg/mL) | 32 µM (≈ 11.4 µg/mL) | 512 µM (≈ 183 µg/mL) | 512 µM (≈ 183 µg/mL) | 512 µM (≈ 183 µg/mL) | 512 µM (≈ 183 µg/mL) | 512 µM (≈ 183 µg/mL) | 256 µM (≈ 91.3 µg/mL) | 64 µM (≈ 22.8 µg/mL) | 128 µM (≈ 45.6 µg/mL) | 512 µM (≈ 183 µg/mL) | 512 µM (≈ 183 µg/mL) | 256 µM (≈ 91.3 µg/mL) | 512 µM (≈ 183 µg/mL) | 128 µM (≈ 45.6 µg/mL) | 512 µM (≈ 183 µg/mL) |
| CCCCN1C(=O)/C(=N\Nc2nc(-c3ccc(F)cc3F)cs2)c2ccccc21 | 512 µM (≈ 211 µg/mL) | 512 µM (≈ 211 µg/mL) | 4 µM (≈ 1.65 µg/mL) | 512 µM (≈ 211 µg/mL) | 4 µM (≈ 1.65 µg/mL) | 512 µM (≈ 211 µg/mL) | 512 µM (≈ 211 µg/mL) | 512 µM (≈ 211 µg/mL) | 2 µM (≈ 0.825 µg/mL) | 512 µM (≈ 211 µg/mL) | 512 µM (≈ 211 µg/mL) | 512 µM (≈ 211 µg/mL) | 512 µM (≈ 211 µg/mL) | 512 µM (≈ 211 µg/mL) | 512 µM (≈ 211 µg/mL) | 512 µM (≈ 211 µg/mL) |
| CCCCN1C(=O)/C(=N\Nc2nccs2)c2ccc(F)cc21 | 4 µM (≈ 1.27 µg/mL) | 32 µM (≈ 10.2 µg/mL) | 4 µM (≈ 1.27 µg/mL) | 4 µM (≈ 1.27 µg/mL) | 4 µM (≈ 1.27 µg/mL) | 2 µM (≈ 0.637 µg/mL) | 2 µM (≈ 0.637 µg/mL) | 4 µM (≈ 1.27 µg/mL) | 1 µM (≈ 0.318 µg/mL) | 2 µM (≈ 0.637 µg/mL) | 1 µM (≈ 0.318 µg/mL) | 2 µM (≈ 0.637 µg/mL) | 4 µM (≈ 1.27 µg/mL) | 32 µM (≈ 10.2 µg/mL) | 1 µM (≈ 0.318 µg/mL) | 2 µM (≈ 0.637 µg/mL) |
| CCCCN1C(=O)/C(=N\Nc2nccs2)c2cc(Br)ccc21 | 16 µM (≈ 6.07 µg/mL) | 32 µM (≈ 12.1 µg/mL) | 64 µM (≈ 24.3 µg/mL) | 32 µM (≈ 12.1 µg/mL) | 16 µM (≈ 6.07 µg/mL) | 256 µM (≈ 97.1 µg/mL) | 16 µM (≈ 6.07 µg/mL) | 16 µM (≈ 6.07 µg/mL) | 8 µM (≈ 3.03 µg/mL) | 256 µM (≈ 97.1 µg/mL) | 16 µM (≈ 6.07 µg/mL) | 32 µM (≈ 12.1 µg/mL) | 64 µM (≈ 24.3 µg/mL) | 64 µM (≈ 24.3 µg/mL) | 32 µM (≈ 12.1 µg/mL) | 16 µM (≈ 6.07 µg/mL) |
| O=C1/C(=N\Nc2nccs2)c2ccccc2N1Cc1cccc(F)c1 | 64 µM (≈ 22.6 µg/mL) | 8 µM (≈ 2.82 µg/mL) | 4 µM (≈ 1.41 µg/mL) | 16 µM (≈ 5.64 µg/mL) | 4 µM (≈ 1.41 µg/mL) | 256 µM (≈ 90.2 µg/mL) | 512 µM (≈ 180 µg/mL) | 256 µM (≈ 90.2 µg/mL) | 128 µM (≈ 45.1 µg/mL) | 128 µM (≈ 45.1 µg/mL) | 256 µM (≈ 90.2 µg/mL) | 64 µM (≈ 22.6 µg/mL) | 32 µM (≈ 11.3 µg/mL) | 16 µM (≈ 5.64 µg/mL) | 32 µM (≈ 11.3 µg/mL) | 128 µM (≈ 45.1 µg/mL) |
| O=C1Nc2ccccc2/C1=N/Nc1nccs1 | 128 µM (≈ 31.3 µg/mL) | 128 µM (≈ 31.3 µg/mL) | 512 µM (≈ 125 µg/mL) | 128 µM (≈ 31.3 µg/mL) | 128 µM (≈ 31.3 µg/mL) | 512 µM (≈ 125 µg/mL) | 256 µM (≈ 62.5 µg/mL) | 128 µM (≈ 31.3 µg/mL) | 512 µM (≈ 125 µg/mL) | 128 µM (≈ 31.3 µg/mL) | 64 µM (≈ 15.6 µg/mL) | 256 µM (≈ 62.5 µg/mL) | 128 µM (≈ 31.3 µg/mL) | 256 µM (≈ 62.5 µg/mL) | 64 µM (≈ 15.6 µg/mL) | 32 µM (≈ 7.82 µg/mL) |

Source: ChEMBL document CHEMBL5370535, “Thiazolyl hydrazineylidenyl indolones as unique potential multitargeting broad-spectrum antimicrobial agents” (Eur J Med Chem, 2023)
